# Experimental data taken from patent US12655116B2, “Substituted isophthalic acid diamides” (Bayer Aktiengesellschaft, priority 2020, dated 2026).
# Key:
# AMARE [1] = assay: Pre-emergence herbicidal action against AMARE; type: in vivo, Amaranthus retroflexus; settings: Amaranthus retroflexus, 504 h, 100% = plants have died, 0% = like control plants; for pest or weed control at 20 g/ha / pest or weed control at 80 g/ha: scored visually after 3 weeks vs untreated controls; for pest or weed control at 320 g/ha: scored visually after 3 weeks
# Outline: (§1)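 Herbicidal effect was assessed 3 weeks after treatment by visual comparison with untreated controls, 100% denoting dead plants. Aqueous WP or EC preparations had been applied at 600 to 800 l/ha with 0.2% wetting agent to the soil covering freshly sown seeds.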
# HORMU [2] = assay: Post-emergence herbicidal action against HORMU; type: in vivo, Hordeum murinum; settings: Hordeum murinum, 504 h; for pest or weed control at 80 g/ha: dosage 80 g/ha; for pest or weed control at 20 g/ha: dosage 20 g/ha
# Outline: (§2)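 Post-emergence greenhouse test; one-leaf stage, 2–3 wk post-sowing, sandy loam. Foliar spray of WP/EC in water, 600–800 l/ha, +0.2% wetting agent. Visual % action at ~3 wk vs untreated (100% = plants dead).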
# SETVI [3] = assay: Pre-emergence herbicidal action against SETVI; type: in vivo, Setaria viridis; settings: Setaria viridis, 504 h; for pest or weed control at 80 g/ha: dosage 80 g/ha; for pest or weed control at 320 g/ha: dosage 320 g/ha
# Outline: as §1
# STEME [4] = assay: Pre-emergence herbicidal action against STEME; type: in vivo, Stellaria media; settings: Stellaria media, 504 h; for pest or weed control at 80 g/ha: dosage 80 g/ha; for pest or weed control at 320 g/ha: dosage 320 g/ha
# Outline: as §1
# VERPE = assay: Pre-emergence herbicidal action against VERPE; type: in vivo, Veronica persica; settings: Veronica persica, 504 h; for pest or weed control at 80 g/ha: dosage 80 g/ha; for pest or weed control at 320 g/ha: dosage 320 g/ha
# Outline: as §1
# SETVI [5] = assay: Post-emergence herbicidal action against SETVI; type: in vivo, Setaria viridis; settings: Setaria viridis, 504 h; for pest or weed control at 20 g/ha: dosage 20 g/ha; for pest or weed control at 80 g/ha: dosage 80 g/ha
# Outline: as §2
# VIOTR = assay: Post-emergence herbicidal action against VIOTR; type: in vivo, Viola tricolor; settings: Viola tricolor, 504 h
# Outline: as §2
# LOLRI [6] = assay: Pre-emergence herbicidal action against LOLRI; type: in vivo, Lolium rigidum; settings: Lolium rigidum, 504 h
# Outline: as §1
# MATIN [7] = assay: Pre-emergence herbicidal action against MATIN; type: in vivo, Matricaria inodora; settings: Tripleurospermum inodorum, 504 h; for pest or weed control at 80 g/ha: dosage 80 g/ha; for pest or weed control at 320 g/ha: dosage 320 g/ha
# Outline: as §1
# ALOMY [8] = assay: Post-emergence herbicidal action against ALOMY; type: in vivo, Alopecurus myosuroides; settings: Alopecurus myosuroides, 504 h, visual assessment about 3 weeks after treatment vs untreated controls; for pest or weed control at 20 g/ha: dosage 20 g/ha; for pest or weed control at 80 g/ha: dosage 80 g/ha
# Outline: as §2
# AVEFA [9] = assay: Pre-emergence herbicidal action against AVEFA; type: in vivo, Avena fatua; settings: Avena fatua, 504 h, pre-emergence; for pest or weed control at 320 g/ha: scored visually after 3 weeks, 100% = plants have died, 0% = like control plants
# Outline: as §1
# HORMU [10] = assay: Pre-emergence herbicidal action against HORMU; type: in vivo, Hordeum murinum; settings: Hordeum murinum, 504 h, pre-emergence
# Outline: as §1
# ECHCG [11] = assay: Pre-emergence herbicidal action against ECHCG; type: in vivo, Echinochloa crus-galli; settings: Echinochloa crus-galli, 504 h
# Outline: as §1
# PHBPU = assay: Post-emergence herbicidal action against PHBPU; type: in vivo, Pharbitis purpurea; settings: Ipomoea purpurea, 504 h; for pest or weed control at 80 g/ha: dosage 80 g/ha
# Outline: as §2
# AMARE [12] = assay: Post-emergence herbicidal action against AMARE; type: in vivo, Amaranthus retroflexus; settings: Amaranthus retroflexus, 504 h, visual assessment about 3 weeks after treatment, 100% = plants have died, 0% = like control plants
# Outline: as §2
# ECHCG [13] = assay: Post-emergence herbicidal action against ECHCG; type: in vivo, Echinochloa crus-galli; settings: Echinochloa crus-galli, 504 h; for pest or weed control at 20 g/ha: dosage 20 g/ha; for pest or weed control at 80 g/ha: dosage 80 g/ha
# Outline: as §2
# ABUTH = assay: Pre-emergence herbicidal action against ABUTH; type: in vivo, Abutilon theophrasti; settings: Abutilon theophrasti, 504 h; for pest or weed control at 80 g/ha: scored visually after 3 weeks vs untreated controls (100% = plants have died, 0% = like control plants); for pest or weed control at 320 g/ha: Dosage: 320 g/ha, scored visually after 3 weeks; for pest or weed control at 320 g/ha / pest or weed control at 20 g/ha: 100% = plants have died, 0% = like control plants; for pest or weed control at 20 g/ha: dosage 20 g/ha, scored visually after 3 weeks vs untreated controls, read-out: Pre-emergence action against ABUTH (herbicidal activity in percent)
# Outline: as §1
# STEME [14] = assay: Post-emergence herbicidal action against STEME; type: in vivo, Stellaria media; settings: Stellaria media, 504 h
# Outline: as §2
# LOLRI [15] = assay: Post-emergence herbicidal action against LOLRI; type: in vivo, Lolium rigidum; settings: Lolium rigidum, 504 h; for pest or weed control at 80 g/ha: dosage 80 g/ha
# Outline: as §2
# AVEFA [16] = assay: Post-emergence herbicidal action against AVEFA; type: in vivo, Avena fatua; settings: Avena fatua, 504 h, visual assessment about 3 weeks after treatment, 100% = plants have died, 0% = like control plants
# Outline: as §2
# ALOMY [17] = assay: Pre-emergence herbicidal action against ALOMY; type: in vivo, Alopecurus myosuroides; settings: Alopecurus myosuroides, 504 h, pre-emergence; for pest or weed control at 80 g/ha: scored visually after 3 weeks vs untreated controls (100% = plants have died, 0% = like control plants); for pest or weed control at 320 g/ha: scored visually after 3 weeks, 100% = plants have died, 0% = like control plants
# Outline: as §1
# MATIN [18] = assay: Post-emergence herbicidal action against MATIN; type: in vivo, Matricaria inodora; settings: Tripleurospermum inodorum, 504 h
# Outline: as §2
smiles,measurement,setting,value
CCn1nnnc1NC(=O)c1ccc(C(F)(F)F)c(C(N)=O)c1Cl [Example 2-338],pest or weed control at 20 g/ha,AMARE [1],90%
same,pest or weed control at 80 g/ha,AMARE [1],100%
same,pest or weed control at 320 g/ha,AMARE [1],100%
same,pest or weed control at 80 g/ha,HORMU [2],100%
same,pest or weed control at 80 g/ha,SETVI [3],90%
same,pest or weed control at 320 g/ha,SETVI [3],100%
same,pest or weed control at 80 g/ha,STEME [4],90%
same,pest or weed control at 320 g/ha,STEME [4],100%
same,pest or weed control at 80 g/ha,VERPE,100%
same,pest or weed control at 320 g/ha,VERPE,100%
same,pest or weed control at 20 g/ha,SETVI [5],80%
same,pest or weed control at 80 g/ha,SETVI [5],100%
same,pest or weed control at 20 g/ha,VIOTR,100%
same,pest or weed control at 80 g/ha,VIOTR,100%
same,pest or weed control at 320 g/ha,LOLRI [6],100%
same,pest or weed control at 80 g/ha,MATIN [7],90%
same,pest or weed control at 320 g/ha,MATIN [7],100%
same,pest or weed control at 20 g/ha,ALOMY [8],80%
same,pest or weed control at 80 g/ha,ALOMY [8],100%
same,pest or weed control at 80 g/ha,AVEFA [9],90%
same,pest or weed control at 320 g/ha,AVEFA [9],100%
same,pest or weed control at 80 g/ha,HORMU [10],80%
same,pest or weed control at 320 g/ha,HORMU [10],100%
same,pest or weed control at 80 g/ha,ECHCG [11],90%
same,pest or weed control at 320 g/ha,ECHCG [11],100%
same,pest or weed control at 80 g/ha,PHBPU,90%
same,pest or weed control at 20 g/ha,AMARE [12],100%
same,pest or weed control at 80 g/ha,AMARE [12],100%
same,pest or weed control at 20 g/ha,ECHCG [13],80%
same,pest or weed control at 80 g/ha,ECHCG [13],100%
same,pest or weed control at 80 g/ha,ABUTH,100%
same,pest or weed control at 320 g/ha,ABUTH,100%
same,pest or weed control at 20 g/ha,ABUTH,90%
same,pest or weed control at 20 g/ha,STEME [14],90%
same,pest or weed control at 80 g/ha,STEME [14],100%
same,pest or weed control at 80 g/ha,LOLRI [15],90%
same,pest or weed control at 20 g/ha,AVEFA [16],80%
same,pest or weed control at 80 g/ha,AVEFA [16],100%
same,pest or weed control at 80 g/ha,ALOMY [17],90%
same,pest or weed control at 320 g/ha,ALOMY [17],100%
CCc1c(C(=O)Nc2nnnn2C)ccc(C(F)(F)F)c1C(=O)NC1CC1 [Example 1-273],pest or weed control at 20 g/ha,AMARE [1],100%
same,pest or weed control at 80 g/ha,AMARE [1],100%
same,pest or weed control at 5 g/ha,HORMU [2]; dosage 5 g/ha,80%
same,pest or weed control at 20 g/ha,HORMU [2],90%
same,pest or weed control at 20 g/ha,SETVI [3]; dosage 20 g/ha,100%
same,pest or weed control at 80 g/ha,SETVI [3],100%
same,pest or weed control at 20 g/ha,STEME [4]; dosage 20 g/ha,100%
same,pest or weed control at 80 g/ha,STEME [4],100%
same,pest or weed control at 80 g/ha,VERPE,90%
same,pest or weed control at 5 g/ha,SETVI [5]; dosage 5 g/ha,80%
same,pest or weed control at 20 g/ha,SETVI [5],100%
same,pest or weed control at 5 g/ha,VIOTR; 5 g/ha,100%
same,pest or weed control at 20 g/ha,VIOTR,100%
same,pest or weed control at 80 g/ha,LOLRI [6]; 80 g/ha,80%
same,pest or weed control at 20 g/ha,MATIN [7]; dosage 20 g/ha,100%
same,pest or weed control at 80 g/ha,MATIN [7],100%
same,pest or weed control at 5 g/ha,ALOMY [8]; dosage 5 g/ha,80%
same,pest or weed control at 20 g/ha,ALOMY [8],100%
same,pest or weed control at 80 g/ha,AVEFA [9],100%
same,pest or weed control at 80 g/ha,HORMU [10],80%
same,pest or weed control at 5 g/ha,MATIN [18]; dosage 5 g/ha,100%
same,pest or weed control at 20 g/ha,MATIN [18]; dosage 20 g/ha,100%
same,pest or weed control at 20 g/ha,ECHCG [11]; 20 g/ha,90%
same,pest or weed control at 80 g/ha,ECHCG [11],100%
same,pest or weed control at 20 g/ha,PHBPU; dosage 20 g/ha,80%
same,pest or weed control at 20 g/ha,AMARE [12],100%
same,pest or weed control at 5 g/ha,ECHCG [13]; dosage 5 g/ha,80%
same,pest or weed control at 20 g/ha,ECHCG [13],90%
same,pest or weed control at 80 g/ha,ABUTH,100%
same,pest or weed control at 20 g/ha,ABUTH,100%
same,pest or weed control at 20 g/ha,STEME [14],100%
same,pest or weed control at 5 g/ha,STEME [14]; dosage 5 g/ha,90%
same,pest or weed control at 20 g/ha,LOLRI [15]; dosage 20 g/ha,80%
same,pest or weed control at 20 g/ha,AVEFA [16],90%
same,pest or weed control at 80 g/ha,ALOMY [17],90%
Cn1nnnc1NC(=O)c1ccc(C(F)(F)F)c(C(N)=O)c1Cl [Example 1-338],pest or weed control at 20 g/ha,AMARE [1],100%
same,pest or weed control at 80 g/ha,AMARE [1],100%
same,pest or weed control at 320 g/ha,AMARE [1],100%
same,pest or weed control at 20 g/ha,HORMU [2],80%
same,pest or weed control at 80 g/ha,HORMU [2],90%
same,pest or weed control at 80 g/ha,SETVI [3],90%
same,pest or weed control at 320 g/ha,SETVI [3],100%
same,pest or weed control at 80 g/ha,STEME [4],90%
same,pest or weed control at 320 g/ha,STEME [4],90%
same,pest or weed control at 80 g/ha,VERPE,90%
same,pest or weed control at 320 g/ha,VERPE,100%
same,pest or weed control at 20 g/ha,SETVI [5],80%
same,pest or weed control at 80 g/ha,SETVI [5],100%
same,pest or weed control at 80 g/ha,VIOTR,90%
same,pest or weed control at 320 g/ha,LOLRI [6],90%
same,pest or weed control at 80 g/ha,MATIN [7],80%
same,pest or weed control at 320 g/ha,MATIN [7],100%
same,pest or weed control at 80 g/ha,ALOMY [8],100%
same,pest or weed control at 80 g/ha,AVEFA [9],90%
same,pest or weed control at 320 g/ha,AVEFA [9],100%
same,pest or weed control at 320 g/ha,HORMU [10],100%
same,pest or weed control at 80 g/ha,ECHCG [11],90%
same,pest or weed control at 320 g/ha,ECHCG [11],100%
same,pest or weed control at 80 g/ha,PHBPU,90%
same,pest or weed control at 20 g/ha,AMARE [12],90%
same,pest or weed control at 80 g/ha,AMARE [12],100%
same,pest or weed control at 20 g/ha,ECHCG [13],90%
same,pest or weed control at 80 g/ha,ECHCG [13],90%
same,pest or weed control at 80 g/ha,ABUTH,100%
same,pest or weed control at 320 g/ha,ABUTH,100%
same,pest or weed control at 20 g/ha,ABUTH,80%
same,pest or weed control at 80 g/ha,STEME [14],90%
same,pest or weed control at 80 g/ha,LOLRI [15],80%
same,pest or weed control at 20 g/ha,AVEFA [16],80%
same,pest or weed control at 80 g/ha,AVEFA [16],100%
same,pest or weed control at 320 g/ha,ALOMY [17],100%
